Assay results from ChEMBL document CHEMBL1201862, “PubChem BioAssay data set” (2004).
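Step 1: Grow cells in 96-well plates. Step 2: Expose to compound for 48 hours at 5 concentrations. Step 3: Interpolate endpoints linearly; if unreached, use highest concentration. GI50 = concentration required for 50% inhibition of growth.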 The source made the active and inactive calls. Cut-off read from the data, not from the text of the source: active = GI50 up to about 1.1 µM and inactive = higher.

How the values were obtained:
Experiment in all cases: DTP human tumour cell line panel, 48 h
[1] = system: A549
[2] = system: CAKI-1
[3] = system: DLD-1
[4] = system: HCC 2998
[5] = system: HCT-15
[6] = system: HOP-92
[7] = system: NCI-H23
[8] = system: NCI-H460
[9] = system: NCI-H522
[10] = system: SF-295
[11] = system: SF-539
[12] = system: SK-MEL-28
[13] = system: SK-MEL-2
[14] = system: SW-620
[15] = system: UO-31
[16] = system: BT-549
[17] = system: HCT-116
[18] = system: MCF7
[19] = system: PC-3
[20] = system: SR

Cc1nc(-n2nc(-c3ccccc3)cc2-c2ccccc2)sc1C(=O)/C=C/c1cccc([N+](=O)[O-])c1
GI50 [1]: 17.5 µM (inactive) | GI50 [2]: 16.7 µM (inactive) | GI50 [3]: 12 µM (inactive) | GI50 [4]: 15.5 µM (inactive) | GI50 [5]: 16.8 µM | GI50 [6]: 22.9 µM (inactive) | GI50 [7]: 17.2 µM (inactive) | GI50 [8]: 25.8 µM (inactive) | GI50 [9]: 13.8 µM (inactive) | GI50 [10]: 20.1 µM (inactive) | GI50 [11]: 10.9 µM (inactive) | GI50 [12]: 17.1 µM (inactive) | GI50 [13]: 17.7 µM (inactive) | GI50 [14]: > 10 µM (inactive) | GI50 [15]: 11.6 µM (inactive)

CN(C)C(=S)NC(=S)Nc1ccc2ccccc2c1
GI50 [1]: 6.73 µM (inactive) | GI50 [16]: 16 µM (inactive) | GI50 [2]: 13.9 µM (inactive) | GI50 [4]: 15.5 µM (inactive) | GI50 [17]: 6.65 µM (inactive) | GI50 [5]: 9.89 µM | GI50 [6]: 17 µM (inactive) | GI50 [18]: 10.3 µM (inactive) | GI50 [7]: 9.64 µM (inactive) | GI50 [8]: 3.94 µM (inactive) | GI50 [9]: 5.7 µM (inactive) | GI50 [19]: 6.1 µM (inactive) | GI50 [10]: 4.55 µM (inactive) | GI50 [11]: 15.1 µM (inactive) | GI50 [12]: 14.5 µM (inactive) | GI50 [13]: 13.9 µM (inactive) | GI50 [20]: 3.97 µM (inactive) | GI50 [14]: 9.89 µM (inactive) | GI50 [15]: 16.1 µM (inactive)

Cc1cc(N(CCC#N)CCC#N)ccc1CC1N=C(c2ccccc2)OC1=O (stereo not given)
GI50 [1]: > 100 µM (inactive) | GI50 [2]: > 100 µM (inactive) | GI50 [3]: > 100 µM (inactive) | GI50 [4]: > 100 µM (inactive) | GI50 [17]: > 100 µM (inactive) | GI50 [5]: > 100 µM | GI50 [6]: > 100 µM (inactive) | GI50 [7]: > 100 µM (inactive) | GI50 [8]: > 100 µM (inactive) | GI50 [9]: > 100 µM (inactive) | GI50 [10]: > 100 µM (inactive) | GI50 [11]: > 100 µM (inactive) | GI50 [12]: > 100 µM (inactive) | GI50 [13]: > 100 µM (inactive) | GI50 [14]: > 100 µM (inactive) | GI50 [15]: > 100 µM (inactive)

Cc1ccc(C)c2c1C1CCCCC3(OCCCO3)C21O (stereo not given)
GI50 [1]: > 100 µM (inactive) | GI50 [2]: > 100 µM (inactive) | GI50 [3]: > 100 µM (inactive) | GI50 [4]: > 100 µM (inactive) | GI50 [17]: > 100 µM (inactive) | GI50 [5]: > 100 µM | GI50 [7]: > 100 µM (inactive) | GI50 [8]: > 100 µM (inactive) | GI50 [9]: > 100 µM (inactive) | GI50 [10]: > 100 µM (inactive) | GI50 [11]: > 100 µM (inactive) | GI50 [12]: > 100 µM (inactive) | GI50 [13]: > 100 µM (inactive) | GI50 [14]: > 100 µM (inactive) | GI50 [15]: > 100 µM (inactive)

COc1cccc2c1C(=O)c1ccc3cc(CCl)cc(O)c3c1C2=O
GI50 [1]: 0.414 µM (active) | GI50 [16]: 0.305 µM (active) | GI50 [2]: 0.733 µM (active) | GI50 [4]: 0.951 µM (active) | GI50 [17]: 0.1 µM (active) | GI50 [5]: 0.254 µM | GI50 [6]: 0.394 µM (active) | GI50 [18]: 0.289 µM (active) | GI50 [7]: 0.402 µM (active) | GI50 [8]: 0.196 µM (active) | GI50 [9]: 0.552 µM (active) | GI50 [19]: 0.243 µM (active) | GI50 [10]: 0.314 µM (active) | GI50 [11]: 0.272 µM (active) | GI50 [12]: 0.348 µM (active) | GI50 [13]: 0.33 µM (active) | GI50 [20]: 0.04 µM (active) | GI50 [14]: 0.127 µM (active) | GI50 [15]: 0.336 µM (active)

C/C(=N\NC(=S)N1CCCCCC1)c1cccc2cccnc12
GI50 [1]: 1.13 µM (inactive) | GI50 [16]: 16 µM (inactive) | GI50 [2]: 0.355 µM (active) | GI50 [4]: 2.76 µM (inactive) | GI50 [17]: 0.634 µM (active) | GI50 [5]: 0.287 µM | GI50 [6]: 11.7 µM (inactive) | GI50 [18]: 0.984 µM (active) | GI50 [7]: 1.32 µM (inactive) | GI50 [8]: 0.681 µM (active) | GI50 [9]: 0.193 µM (active) | GI50 [19]: 3.81 µM (inactive) | GI50 [10]: 0.271 µM (active) | GI50 [11]: 0.845 µM (active) | GI50 [12]: 1.77 µM (inactive) | GI50 [13]: 19.5 µM (inactive) | GI50 [20]: < 0.01 µM (active) | GI50 [14]: 1.55 µM (inactive) | GI50 [15]: 1.94 µM (inactive)

CCOC(=O)/C=C(/C(=O)OCC)n1ccc(=O)n(Cc2cnnn2COCCOC(C)=O)c1=O
GI50 [1]: 41.1 µM (inactive) | GI50 [16]: 19.5 µM (inactive) | GI50 [2]: 5.93 µM (inactive) | GI50 [4]: 16.2 µM (inactive) | GI50 [17]: 18.9 µM (inactive) | GI50 [5]: 8.77 µM | GI50 [6]: 2.08 µM (inactive) | GI50 [18]: 10.4 µM (inactive) | GI50 [7]: 17.1 µM (inactive) | GI50 [8]: > 43 µM (inactive) | GI50 [9]: 1.95 µM (inactive) | GI50 [19]: 17.5 µM (inactive) | GI50 [10]: > 100 µM (inactive) | GI50 [11]: 11 µM (inactive) | GI50 [12]: 16.3 µM (inactive) | GI50 [13]: 19.9 µM (inactive) | GI50 [20]: 13.4 µM (inactive) | GI50 [14]: 3.98 µM (inactive) | GI50 [15]: 16 µM (inactive)

O=c1sc(-c2nc3ccccc3[nH]2)c(/N=C/c2ccccc2)n1-c1ccccc1
GI50 [1]: 57.4 µM (inactive) | GI50 [2]: > 100 µM (inactive) | GI50 [3]: > 100 µM (inactive) | GI50 [4]: > 100 µM (inactive) | GI50 [5]: 74.1 µM | GI50 [7]: > 100 µM (inactive) | GI50 [9]: 90.2 µM (inactive) | GI50 [10]: 40.9 µM (inactive) | GI50 [11]: 26.3 µM (inactive) | GI50 [12]: > 100 µM (inactive) | GI50 [13]: 63 µM (inactive) | GI50 [14]: > 100 µM (inactive) | GI50 [15]: > 100 µM (inactive)
